Among the data in patent US12240854B2, “TRAF 6 inhibitors” (Helmholtz Zentrum München - Deutsches Forschungszentrum für …, priority 2018, dated 2025) are IC50 and inhibition values, retold here.

Molecules are shown by their SMILES.

The target of the assay is T1, TRAF6WTStrepII-Ubc13FH interaction (Homo sapiens, UniProt Q9Y4K3).
T1 construct: RING-Zincfinger1 (RZ1) domain (residues 50-159) of human TRAF6 wildtype; made in house; host or cells: E. coli BL21 codon plus RIPL
T1 sequence (Q9Y4K3 with tags, fused parts or gaps): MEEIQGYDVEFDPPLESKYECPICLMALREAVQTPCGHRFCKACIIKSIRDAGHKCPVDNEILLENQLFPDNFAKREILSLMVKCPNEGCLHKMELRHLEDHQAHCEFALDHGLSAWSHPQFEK
The assay is described as follows: ALPHAScreen TRAF6-Ubc13 interaction assay. The class given is binding. Particulars: TRAF6 100 nM, Ubc13FH 75 nM; class symbols; read-out: IC50 Alphascreen (inhibition of TRAF6-UBC13 interaction). An excerpt:
In order to identify small molecules that specifically target the RZ1 domain of TRAF6 and thereby prevent its binding to Ubc13, the ALPHAScreen technology (PerkinElmer) was chosen to detect TRAF6WTStrepII-Ubc13FH interaction in High-Throughput-Screenings as well as Structure Activity Relationship (SAR) analysis.
For performance of an automated ALPHAScreen assay, all following components were pre-diluted in ALPHAScreen buffer (1×PBS, 0.5% BSA, 0.01% Tween-20). First, the TRAF6 protein (end concentration 100 nM, 30 μL volume) was added to 384-well-opti-plates involving the MultiFlo dispensing system (BioTek) followed by transfer of the compounds via the Sciclone G3 transfer station (PerkinElmer). After addition of Ubc13FH (end concentration 75 nM, 10 μL volume) with the MultiFlo system and incubation for one hour at room temperature, both beads (Strep-Tactin Alpha Donor beads and Nickel-Chelate acceptor beads; end concentrations 4 μg each, 10 μL volume each) were mixed and added using the MultiFlo system in subdued light. Read-out of the plates occurred after another hour of incubation at room temperature. Statistical parameters including the coefficient of variation, Z′ factor and signal window were calculated to determine the quality of the HTS campaign. To evaluate the efficacy of the compounds, ALPHAScreen units of compound-treated samples were referred to DMSO control treated samples. Thereby, the TRAF6D57K mutant served as the control for minimum signal and was included on every plate of the screening. Compounds that inhibited TRAF6WTStrepII-Ubc13FH by more than 25% were considered as actives. After elimination of ALPHAScreen frequent hitter compounds and His-tag frequent hitters (Schorpp, K., I. Rothenaigner, E. Salmina, et al., Identification of Small-Molecule Frequent Hitters from AlphaScreen High-Throughput Screens. J Biomol Screen, 2014. 19(5): p. 715-26), 178 compounds were defined as primary hits and were subsequently tested in five-point serial dilution assays (2.5-40 μM) in TRAF6WTStrepII-Ubc13FH ALPHAScreen experiments. Only compounds with dose-dependent effects on TRAF6WTStrepII-Ubc13FH (n=27) were taken for further research. For analog testing, all compounds were analyzed in ten-point titration (0.2-100 μM) in TRAF6WTStrepII-Ubc13FH ALPHAScreen experiments. In parallel, the compounds were tested in the ALPHAScreen TruHits Kit (PerkinElmer) to rule out unspecific interference with the ALPHAScreen technology.
In the case of `COC(=O)c1ccc(CN2CCN(C(=O)CCc3c(C)nn(-c4ccc5nnc(C)n5n4)c3C)CC2)cc1` [Example 96], the IC50 (as a rule, the concentration that gives 50% inhibition) is at most 3 µM.

As for `Cc1nn(-c2ccc3nnc(C)n3n2)c(C)c1CCC(=O)N1CCN(Cc2ccc(C(=O)O)cc2)CC1` [Example 97], the IC50 was at most 3 µM.

Take `COC(=O)c1cccc(CN2CCN(C(=O)CCc3c(C)nn(-c4ccc5nnc(C)n5n4)c3C)CC2)c1` [Example 98]: the IC50 was at most 10 µM.

Turning to `Cc1nn(-c2ccc3nnc(C)n3n2)c(C)c1CCC(=O)N1CCN(Cc2cccc(C(=O)O)c2)CC1` [Example 99], the half-inhibitory concentration (IC50) was at most 3 µM.

Take `Cc1nn(-c2ccc3nnc(C)n3n2)c(C)c1CCC(=O)N1CCN(Cc2cccc(C(N)=O)c2)CC1` [Example 100]: the inhibition (as a rule, the drop in the measured response relative to a control, in per cent) at 100 µM is at least 30%.

As to `CNC(=O)c1cccc(CN2CCN(C(=O)CCc3c(C)nn(-c4ccc5nnc(C)n5n4)c3C)CC2)c1` [Example 101], the 50% inhibitory concentration (IC50) is at most 30 µM.

As to `Cc1nn(-c2ccc3nnc(C)n3n2)c(C)c1CCC(=O)N1CCNC(Cc2ccccc2)C1` (centres unmarked) [Example 102], the IC50 was at most 30 µM.

On to `Cc1nn(-c2ccc3nnc(C)n3n2)c(C)c1CCC(=O)N1CCCC(Cc2ccccc2)C1` (centres unmarked) [Example 103], for which the inhibition at 100 µM was at least 30%.

Take `Cc1nn(-c2ccc3nnc(C)n3c2)c(C)c1CCC(=O)N1CCC(CCc2ccccc2)CC1` [Example 104]: the inhibition at 100 µM was at least 30%.

With `Cc1nn(-c2ccc3nnc(C)n3c2)c(C)c1CCC(=O)N1CCN(Cc2ccccc2)CC1` [Example 105], the inhibition at 100 µM is at least 30%.

Take `Cc1nn(-c2ccc3nnc(C)n3c2)c(C)c1CCC(=O)N1CCCC(Cc2ccccc2)C1` (centres unmarked) [Example 106]: the inhibition at 100 µM was at least 30%.

Take `Cc1nn(-c2ccc3nnc(C)n3c2)c(C)c1CCC(=O)N1CCC(Cc2ccccc2)C1` (centres unmarked) [Example 107]: the inhibition at 100 µM was at least 30%.

Turning to `CC(=O)c1ccc(CN2CCN(C(=O)CCc3c(C)nn(-c4ccc5nnc(C)n5n4)c3C)CC2)cc1` [Example 108], the IC50 is at most 10 µM.

As for `Cc1nn(-c2ccc3nnc(C)n3n2)c(C)c1CCC(=O)N1CCN(Cc2ccc(C#N)cc2)CC1` [Example 109], the IC50 is at most 30 µM.

Consider `Cc1nn(-c2ccc3nnc(C)n3n2)c(C)c1CCC(=O)N1CCN(Cc2ccc(C(F)(F)F)cc2)CC1` [Example 110], for which the half-inhibitory concentration (IC50) was at most 30 µM.

Turning to `Cc1nn(-c2ccc3nnc(C)n3n2)c(C)c1CCC(=O)N1CCN(Cc2ccc(I)cc2)CC1` [Example 111], the half-maximal inhibitory concentration (IC50) was at most 30 µM.

As for `CC(=O)Nc1ccc(CN2CCN(C(=O)CCc3c(C)nn(-c4ccc5nnc(C)n5n4)c3C)CC2)cc1` [Example 112], the IC50 was at most 10 µM.

With `Cc1nn(-c2ccc3nnc(C)n3n2)c(C)c1CCC(=O)N1CCN(Cc2ccc(-c3ccccc3)cc2)CC1` [Example 113], the IC50 was at most 10 µM.

Consider `Cc1nn(-c2ccc3nnc(C)n3n2)c(C)c1CCC(=O)N1CCN(Cc2ccc(N(C)C)cc2)CC1` [Example 114], for which the IC50 was at most 10 µM.

For the molecule `Cc1nn(-c2ccc3nnc(C)n3n2)c(C)c1CCC(=O)N1CCN(Cc2ccc([N+](=O)[O-])cc2)CC1` [Example 115], the IC50 was at most 3 µM.

With `Cc1nn(-c2ccc3nnc(C)n3n2)c(C)c1CCC(=O)N1CCN(Cc2ccc(S(C)(=O)=O)cc2)CC1` [Example 116], the concentration for half-maximal inhibition (IC50) is at most 3 µM.

Take `Cc1nn(-c2ccc3nnc(C)n3n2)c(C)c1CCC(=O)N1CCN(Cc2ccc(NS(C)(=O)=O)cc2)CC1` [Example 117]: the half-maximal inhibitory concentration (IC50) was at most 10 µM.

For `Cc1nn(-c2ccc3nnc(C)n3n2)c(C)c1CCC(=O)N1CCN(Cc2ccc(C(N)=O)cc2)CC1` [Example 118], the IC50 was at most 10 µM.

Regarding `Cc1nn(-c2ccc3nnc(C)n3n2)c(C)c1CCC(=O)N1CCC(C)(Cc2ccccc2)C1` (centres unmarked) [Example 119], the IC50 was at most 3 µM.

`Cc1cc(C(=O)O)ccc1CN1CCN(C(=O)CCc2c(C)nn(-c3ccc4nnc(C)n4n3)c2C)CC1` [Example 121]: the concentration for half-maximal inhibition (IC50) was at most 3 µM.

As to `Cc1cc(CN2CCN(C(=O)CCc3c(C)nn(-c4ccc5nnc(C)n5n4)c3C)CC2)ccc1[N+](=O)[O-]` [Example 122], the IC50 is at most 3 µM.

Consider `Cc1nn(-c2ccc3nnc(C)n3n2)c(C)c1CCC(=O)N1CCN(Cc2ccc(O)c(Cl)c2)CC1` [Example 123], for which the IC50 is at most 3 µM.

As to `CC(=O)c1cccc(CN2CCN(C(=O)CCc3c(C)nn(-c4ccc5nnc(C)n5n4)c3C)CC2)c1` [Example 125], the half-maximal inhibitory concentration (IC50) is at most 3 µM.

For the molecule `Cc1nn(-c2ccc3nnc(C)n3n2)c(C)c1CCC(=O)N1CCN(Cc2cccc(C#N)c2)CC1` [Example 126], the IC50 is at most 3 µM.

On to `Cc1nn(-c2ccc3nnc(C)n3n2)c(C)c1CCC(=O)N1CCN(Cc2ccccc2C#N)CC1` [Example 127], for which the concentration for half-maximal inhibition (IC50) was at most 10 µM.

For the molecule `Cc1nn(-c2ccc3nnc(C)n3n2)c(C)c1CCC(=O)N1CCN(Cc2cccc(-c3ccccc3)c2)CC1` [Example 128], the IC50 was at most 10 µM.

Consider `Cc1cc(CN2CCN(C(=O)CCc3c(C)nn(-c4ccc5nnc(C)n5n4)c3C)CC2)cc([N+](=O)[O-])c1` [Example 129], for which the IC50 is at most 3 µM.

For the molecule `Cc1nn(-c2ccc3nnc(C)n3n2)c(C)c1CCC(=O)N1CCN(Cc2ccc(S(N)(=O)=O)cc2)CC1` [Example 130], the IC50 was at most 3 µM.

Regarding `Cc1nn(-c2ccc3nnc(C)n3n2)c(C)c1CCC(=O)N1CCN(Cc2ccc(C(=O)O)c(F)c2)CC1` [Example 131], the IC50 is at most 3 µM.

`Cc1nn(-c2ccc3nnc(C)n3n2)c(C)c1CCC(=O)N1CCN(Cc2ccc(Cl)cc2Cl)CC1` [Example 132]: the half-inhibitory concentration (IC50) is at most 10 µM.

In the case of `Cc1cccc(CN2CCN(C(=O)CCc3c(C)nn(-c4ccc5nnc(C)n5n4)c3C)CC2)c1` [Example 133], the IC50 is at most 10 µM.

As for `Cc1nn(-c2ccc3nnc(C)n3n2)c(C)c1CCC(=O)N1CCN(Cc2cccc(I)c2)CC1` [Example 134], the IC50 is at most 3 µM.

`Cc1nn(-c2ccc3nnc(C)n3n2)c(C)c1CCC(=O)N1CCN(Cc2ccc(Cl)c(Cl)c2)CC1` [Example 135]: the IC50 is at most 3 µM.

For the molecule `Cc1nn(-c2ccc3nnc(C)n3n2)c(C)c1CCC(=O)N1CCN(Cc2ccc(C(F)(F)F)c(F)c2)CC1` [Example 136], the concentration for half-maximal inhibition (IC50) was at most 10 µM.

As to `Cc1nn(-c2ccc3nnc(C)n3n2)c(C)c1CCC(=O)N1CCN(Cc2ccc3cn[nH]c3c2)CC1` [Example 137], the 50% inhibitory concentration (IC50) was at most 10 µM.

As for `Cc1nn(-c2ccc3nnc(C)n3n2)c(C)c1CCC(=O)N1CCN(Cc2cccc3ncccc23)CC1` [Example 138], the IC50 is at most 10 µM.

As to `Cc1ccc(CN2CCN(C(=O)CCc3c(C)nn(-c4ccc5nnc(C)n5n4)c3C)CC2)cc1` [Example 139], the IC50 was at most 30 µM.

For `Cc1nn(-c2ccc3nnc(C)n3n2)c(C)c1CCC(=O)N1CCN(Cc2ccc(F)c(F)c2)CC1` [Example 140], the IC50 was at most 30 µM.

As for `Cc1nn(-c2ccc3nnc(C)n3n2)c(C)c1CCC(=O)N1CCN(Cc2cccc3ccccc23)CC1` [Example 141], the 50% inhibitory concentration (IC50) was at most 30 µM.

As for `Cc1nn(-c2ccc3nnc(C)n3n2)c(C)c1CCC(=O)N1CCN(Cc2c(Cl)cccc2Cl)CC1` [Example 142], the IC50 is at most 10 µM.

On to `Cc1nn(-c2ccc3nnc(C)n3n2)c(C)c1CCC(=O)N1CCN(Cc2ccc(Cl)cc2)CC1` [Example 143], for which the IC50 was at most 30 µM.

Consider `Cc1nn(-c2ccc3nnc(C)n3n2)c(C)c1CCC(=O)N1CCN(Cc2ccccc2Cl)CC1` [Example 144], for which the IC50 was at most 10 µM.

`Cc1nn(-c2ccc3nnc(C)n3n2)c(C)c1CCC(=O)N1CCC(CCc2ccccc2)CC1` [Example 145]: the half-inhibitory concentration (IC50) is at most 10 µM.

Take `Cc1nn(-c2ccc3nnc(C)n3n2)c(C)c1CCC(=O)N1CCN(Cc2cc(F)c(O)c(F)c2)CC1` [Example 146]: the IC50 was at most 3 µM.

Consider `Cc1nn(-c2ccc3nnc(C)n3n2)c(C)c1CCC(=O)N1CCN(Cc2cccc([N+](=O)[O-])c2)CC1` [Example 149], for which the half-maximal inhibitory concentration (IC50) was at most 10 µM.

For `Cc1nn(-c2ccc3nnc(C)n3n2)c(C)c1CCC(=O)N1CCN(Cc2ccc3cccnc3c2)CC1` [Example 150], the IC50 was at most 10 µM.

Take `Cc1nn(-c2ccc3nnc(C)n3n2)c(C)c1CCC(=O)N1CCN(Cc2cccc(C(N)=O)c2)CC1` [Example 151]: the IC50 was at most 10 µM.

For the molecule `Cc1nn(-c2ccc3nnc(C)n3n2)c(C)c1CCC(=O)N1CCN(Cc2cccc3cccnc23)CC1` [Example 153], the half-inhibitory concentration (IC50) is at most 3 µM.
